From ChEMBL document CHEMBL1201862, “PubChem BioAssay data set” (2004)
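Where inhibition never reached the appropriate level, the endpoint shown equals the highest concentration tested. Otherwise, values were interpolated linearly from a five-concentration, 48-hour dose response in 96-well plates. GI50: concentration for 50% inhibition of growth.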 Calls of active or inactive are those of the source. No stated cut-off is given here; in the data, active = GI50 up to about 1.1 µM and inactive = higher.

Assays:
Test in all cases: NCI anticancer screen, dose series, 48 h
HCT-116 = system: HCT-116
NCI-H460 = system: NCI-H460
SF-295 = system: SF-295
SK-MEL-2 = system: SK-MEL-2
MDA-MB-231 = system: MDA-MB-231
UACC-257 = system: UACC-257
U-251 = system: U-251
KM12 = system: KM12
HCT-15 = system: HCT-15
MCF7 = system: MCF7
SNB-19 = system: SNB-19
A498 = system: A498
OVCAR-5 = system: OVCAR-5
TK-10 = system: TK-10
DU-145 = system: DU-145
Malme-3M = system: Malme-3M
T47D = system: T47D
Hs-578T = system: Hs-578T
SK-MEL-5 = system: SK-MEL-5
OVCAR-3 = system: OVCAR-3

Row | SMILES | GI50 (HCT-116) | GI50 (NCI-H460) | GI50 (SF-295) | GI50 (SK-MEL-2) | GI50 (MDA-MB-231) | GI50 (UACC-257) | GI50 (U-251) | GI50 (KM12) | GI50 (HCT-15) [µM] | GI50 (MCF7) | GI50 (SNB-19) | GI50 (A498) | GI50 (OVCAR-5) | GI50 (TK-10) | GI50 (DU-145) | GI50 (Malme-3M) | GI50 (T47D) | GI50 (Hs-578T) | GI50 (SK-MEL-5) | GI50 (OVCAR-3)
1 | N#C/C=C1\C=CC(O)C(O)C1OC1OC(CO)C(O)C(O)C1O (stereo not given) | > 100 µM (inactive) | > 100 µM (inactive) | > 100 µM (inactive) | > 100 µM (inactive) | > 100 µM (inactive) | > 100 µM (inactive) | > 100 µM (inactive) | > 100 µM (inactive) | > 100 | > 100 µM (inactive) | > 100 µM (inactive) | > 100 µM (inactive) | > 100 µM (inactive) | > 100 µM (inactive) | > 100 µM (inactive) | > 100 µM (inactive) | > 100 µM (inactive) | > 100 µM (inactive) | > 100 µM (inactive) | > 100 µM (inactive)
2 | C#CC1=CC(=O)C(OC)=CC1=O | 13.3 µM (inactive) | 34.5 µM (inactive) | 29.4 µM (inactive) | 15.7 µM (inactive) | 16.4 µM (inactive) | 41.6 µM (inactive) | 31.9 µM (inactive) | 58.7 µM (inactive) | 16.4 | 14.8 µM (inactive) | > 100 µM (inactive) | > 100 µM (inactive) | 33.5 µM (inactive) | 48.6 µM (inactive) | 17.8 µM (inactive) | 25.9 µM (inactive) | 23 µM (inactive) | 95.1 µM (inactive) | 16.2 µM (inactive) | 33.5 µM (inactive)
3 | NS(=O)(=O)c1ccc(Nc2c3ccccc3nc3c(C(=O)NC(CO)(CO)CO)cccc23)cc1 | 0.144 µM (active) | 0.0668 µM (active) | 0.294 µM (active) | 0.21 µM (active) | 0.195 µM (active) | 0.181 µM (active) | 0.119 µM (active) | 0.158 µM (active) | 0.282 | 0.0143 µM (active) | 0.217 µM (active) | 0.224 µM (active) | 0.233 µM (active) | 0.164 µM (active) | 0.194 µM (active) | 0.135 µM (active) | 0.0815 µM (active) | 0.154 µM (active) | 0.107 µM (active) | 0.15 µM (active)
4 | Cc1cc(/N=C/c2ccc(N(C)C)cc2)n(-c2ccccc2)n1 | 25.5 µM (inactive) | 23.9 µM (inactive) | 30.8 µM (inactive) | > 100 µM (inactive) | 91.6 µM (inactive) | 91.4 µM (inactive) | 27.4 µM (inactive) | 16.7 µM (inactive) | 15.6 | 31 µM (inactive) | 61.2 µM (inactive) | 26.1 µM (inactive) | > 100 µM (inactive) | 46.8 µM (inactive) | 35.6 µM (inactive) | > 100 µM (inactive) | 18.5 µM (inactive) | 29.9 µM (inactive) | 40.2 µM (inactive) | 9.16 µM (inactive)
